Reference: BindingDB's records for doi:10.1128/AAC.00802-08 (University of Medicine and Dentistry of New Jersey, 2008)

How the values were obtained:
1,3-beta-glucan synthase [1] = biological target: T1, 1,3-beta-glucan synthase (Candida tropicalis, UniProt B6S6L8, S80P); experiment: Inhibition of Candida tropicalis T19 blood stream isolate glucan synthase subunit FKS1p with FLTLS/PLRDP mutant at biphasic kinetics
1,3-beta-glucan synthase [2] = biological target: T1, 1,3-beta-glucan synthase; experiment: Inhibition of Candida tropicalis T3 blood stream isolate glucan synthase subunit FKS1p with FLTLS/PLRDP mutant at biphasic kinetics
1,3-beta-glucan synthase [3] = biological target: T1, 1,3-beta-glucan synthase; experiment: Inhibition of Candida tropicalis T19 blood stream isolate glucan synthase subunit FKS1p with FLTLS/PLRDP mutant at monophasic kinetics
[4] = biological target: T2, 1,3-beta-D-glucan synthase catalytic subunit (Candida albicans, UniProt O13383); experiment: Inhibition of Candida albicans ATCC 90028 glucan synthase at monophasic kinetics
T2 sequence (O13383 whole entry): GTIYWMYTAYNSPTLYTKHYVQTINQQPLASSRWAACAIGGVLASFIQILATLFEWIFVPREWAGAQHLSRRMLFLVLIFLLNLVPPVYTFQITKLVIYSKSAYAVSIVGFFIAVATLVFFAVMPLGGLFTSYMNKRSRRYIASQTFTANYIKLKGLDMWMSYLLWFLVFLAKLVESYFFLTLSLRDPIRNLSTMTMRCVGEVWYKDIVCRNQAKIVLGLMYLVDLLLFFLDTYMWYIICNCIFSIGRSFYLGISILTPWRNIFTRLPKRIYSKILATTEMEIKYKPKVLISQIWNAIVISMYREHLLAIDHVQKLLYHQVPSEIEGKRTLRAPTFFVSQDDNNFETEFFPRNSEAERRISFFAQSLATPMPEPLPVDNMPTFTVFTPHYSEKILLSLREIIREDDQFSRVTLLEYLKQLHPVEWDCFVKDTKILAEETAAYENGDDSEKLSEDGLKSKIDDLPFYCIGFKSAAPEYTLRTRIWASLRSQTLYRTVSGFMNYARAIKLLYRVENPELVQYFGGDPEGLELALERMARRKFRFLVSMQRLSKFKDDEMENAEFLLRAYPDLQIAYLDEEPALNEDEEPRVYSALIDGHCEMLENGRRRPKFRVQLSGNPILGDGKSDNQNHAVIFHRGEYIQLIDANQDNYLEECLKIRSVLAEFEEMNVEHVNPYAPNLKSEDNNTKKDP

1,3-beta-glucan synthase [5] = biological target: T1, 1,3-beta-glucan synthase; experiment: Inhibition of Candida tropicalis T3 blood stream isolate glucan synthase subunit FKS1p with FLTLS/PLRDP mutant at monophasic kinetics
1,3-beta-glucan synthase [6] = biological target: 1,3-beta-glucan synthase (Candida tropicalis, UniProt B6S6L8, F76L); experiment: Inhibition of Candida tropicalis T26 blood stream isolate glucan synthase subunit FKS1p with LLTLSLRDP mutant at monophasic kinetics
Chain of 1,3-beta-glucan synthase (Candida tropicalis, UniProt B6S6L8, F76L) (B6S6L8 entry or part of it, stated change not applied): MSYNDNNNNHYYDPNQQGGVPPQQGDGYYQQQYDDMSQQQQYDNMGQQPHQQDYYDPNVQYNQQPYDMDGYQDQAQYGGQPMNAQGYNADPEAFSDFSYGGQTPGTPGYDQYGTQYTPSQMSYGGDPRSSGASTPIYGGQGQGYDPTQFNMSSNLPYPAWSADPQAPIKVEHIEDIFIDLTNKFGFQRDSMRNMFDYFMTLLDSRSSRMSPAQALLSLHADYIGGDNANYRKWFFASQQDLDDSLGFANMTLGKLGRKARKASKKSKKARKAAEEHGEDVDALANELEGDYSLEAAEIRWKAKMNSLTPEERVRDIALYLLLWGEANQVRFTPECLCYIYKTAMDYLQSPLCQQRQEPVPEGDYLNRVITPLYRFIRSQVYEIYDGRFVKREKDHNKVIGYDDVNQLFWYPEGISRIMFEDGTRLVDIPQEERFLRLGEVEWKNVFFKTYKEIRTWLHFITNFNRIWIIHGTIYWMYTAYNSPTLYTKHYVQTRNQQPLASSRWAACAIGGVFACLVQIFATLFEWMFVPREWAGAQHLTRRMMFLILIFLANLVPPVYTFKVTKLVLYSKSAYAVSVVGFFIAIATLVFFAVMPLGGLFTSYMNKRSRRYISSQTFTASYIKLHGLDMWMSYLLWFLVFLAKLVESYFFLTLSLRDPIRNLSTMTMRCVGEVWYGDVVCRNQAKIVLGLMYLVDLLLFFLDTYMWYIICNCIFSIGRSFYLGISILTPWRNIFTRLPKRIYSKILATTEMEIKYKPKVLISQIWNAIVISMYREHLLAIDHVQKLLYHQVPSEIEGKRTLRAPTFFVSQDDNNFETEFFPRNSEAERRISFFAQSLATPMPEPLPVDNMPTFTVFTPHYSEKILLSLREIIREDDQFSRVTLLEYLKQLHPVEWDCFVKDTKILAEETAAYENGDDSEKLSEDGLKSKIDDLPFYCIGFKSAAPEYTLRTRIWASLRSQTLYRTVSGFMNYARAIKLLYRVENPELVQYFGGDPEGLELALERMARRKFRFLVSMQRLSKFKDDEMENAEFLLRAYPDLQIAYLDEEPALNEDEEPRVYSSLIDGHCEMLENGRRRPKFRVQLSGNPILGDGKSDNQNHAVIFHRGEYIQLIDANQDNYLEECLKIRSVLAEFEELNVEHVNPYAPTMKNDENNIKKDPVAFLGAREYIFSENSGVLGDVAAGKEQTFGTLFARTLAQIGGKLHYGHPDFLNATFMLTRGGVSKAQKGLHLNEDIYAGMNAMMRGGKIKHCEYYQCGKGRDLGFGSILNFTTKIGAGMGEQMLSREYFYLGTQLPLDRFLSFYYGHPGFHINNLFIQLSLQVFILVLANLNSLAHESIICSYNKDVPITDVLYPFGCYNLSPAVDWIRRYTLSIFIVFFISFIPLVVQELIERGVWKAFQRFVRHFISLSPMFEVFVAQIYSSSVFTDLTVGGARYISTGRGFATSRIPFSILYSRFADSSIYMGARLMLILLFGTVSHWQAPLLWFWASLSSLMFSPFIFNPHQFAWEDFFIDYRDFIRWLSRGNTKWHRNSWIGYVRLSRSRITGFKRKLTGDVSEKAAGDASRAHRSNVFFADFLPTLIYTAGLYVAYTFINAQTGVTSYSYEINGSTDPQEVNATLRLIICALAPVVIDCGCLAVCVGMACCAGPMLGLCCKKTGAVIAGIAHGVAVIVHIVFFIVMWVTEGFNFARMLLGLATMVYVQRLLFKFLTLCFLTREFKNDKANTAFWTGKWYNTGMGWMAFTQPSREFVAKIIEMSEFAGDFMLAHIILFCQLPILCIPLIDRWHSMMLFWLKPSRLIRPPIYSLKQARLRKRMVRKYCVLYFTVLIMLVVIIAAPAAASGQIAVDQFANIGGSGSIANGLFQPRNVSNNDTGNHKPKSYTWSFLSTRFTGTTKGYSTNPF

T1 sequence (B6S6L8 entry or part of it, stated change not applied): as above

Structure (SMILES): CCC(C)CC(C)CCCCCCCCC(=O)N[C@H]1C[C@@H](O)[C@@H](NCCN)NC(=O)[C@@H]2[C@@H](O)CCN2C(=O)[C@H]([C@H](O)CCN)NC(=O)[C@H]([C@H](O)[C@@H](O)c2ccc(O)cc2)NC(=O)[C@@H]2C[C@@H](O)CN2C(=O)[C@H]([C@@H](C)O)NC1=O (stereo partly specified) [CHEBI:474180]
- IC50 (1,3-beta-glucan synthase [1]): 264 nM
- IC50 (1,3-beta-glucan synthase [2]): 370 nM
- IC50 (1,3-beta-glucan synthase [3]): 0.296 nM
- IC50 [4]: 0.5 nM
- IC50 (1,3-beta-glucan synthase [5]): 0.306 nM
- IC50 (1,3-beta-glucan synthase [6]): 77 nM
